Columns and labels:
Type in all cases: biochemical
cholinesterases (ChE) = assay: pH-stat method: hydrolysis of headgroups by cholinesterases of human serum; conditions: 100 mM solutions diluted 100 times, pH 9.0, human serum 0.1 ml, 15 min
Protocol: The ability of cholinesterases (ChE) to hydrolyze Derivatives 1 and 2 was assessed using two methods:
(i) The pH-stat method: Hydrolysis of the acetylcholine ester headgroups of Derivative 1, as well as of acetylcholine (ACh), by cholinesterases (ChE), releases acetic acid into the solution. Hydrolysis of Derivative 2 by ChE releases choline and a free fatty acid. In both cases, the release of acid results in pH drop. The hydrolysis rate of these compounds can be determined by measuring the amount of NaOH needed to neutralize the acid generated during hydrolysis. Three solutions, 100 mM concentration each of acetylcholine (ACh) in water and of Derivatives 1 and 2 in methanol were prepared, then diluted 100 times with water (10 ml), and their pH was adjusted to pH 9.0 using 0.1M NaOH. The pH was monitored until it remained stable for 10 min (baseline). At this stage, human serum (0.1 ml) containing ChE, was added and each of the solutions was titrated with 0.05M NaOH in order to maintain pH 9.0. The amount of the NaOH needed to maintain constant pH was measured during 15 min. […] Thus vesicles prepared from Derivative 1 are expected to disrupt, in presence of ChE, faster than vesicles made from Derivative 2.

[1] = tested on: acetylcholinesterase (ACHE); assay: Competition assay using the Elman's method (acetylthiocholine/DTNB); conditions: acetylthiocholine 1.5 mM, DTNB 0.5 mM, 3 units AChE, phosphate-buffered saline
Protocol: (ii) Competition assay using the Elman's method: Hydrolysis of acetylthiocholine (ATC) releases thiocholine, which reduces 5,5′-dithiobis-2-nitrobenzoate (DTNB) giving rise to a yellow coloring of the solution. […] A series of solutions with varying concentrations of Derivatives 1 and 2 in methanol together with acetylthiocholine (1.5 mM), DTNB (0.5 mM), and with 3 units of acetylcholinesterase (ACHE) in phosphate-buffered saline, was prepared. The rate of appearance of yellow color was determined in each of the reaction mixtures. […] Thus, vesicles prepared from Derivative 1 are expected to disrupt faster than vesicles prepared from Derivative 2, when exposed to cholinesterases.

[2] = target: T1, aromatic L-amino acid decarboxylase (AADC) (Rattus norvegicus, UniProt P14173); assay: Decarboxylation of headgroup by AADC from rat liver homogenate (HPLC, electrochemical detector)
T1 construct: rat liver homogenate served as the source for AADC; from tissue; host or cells: rat liver homogenate
T1 sequence (P14173 1-480): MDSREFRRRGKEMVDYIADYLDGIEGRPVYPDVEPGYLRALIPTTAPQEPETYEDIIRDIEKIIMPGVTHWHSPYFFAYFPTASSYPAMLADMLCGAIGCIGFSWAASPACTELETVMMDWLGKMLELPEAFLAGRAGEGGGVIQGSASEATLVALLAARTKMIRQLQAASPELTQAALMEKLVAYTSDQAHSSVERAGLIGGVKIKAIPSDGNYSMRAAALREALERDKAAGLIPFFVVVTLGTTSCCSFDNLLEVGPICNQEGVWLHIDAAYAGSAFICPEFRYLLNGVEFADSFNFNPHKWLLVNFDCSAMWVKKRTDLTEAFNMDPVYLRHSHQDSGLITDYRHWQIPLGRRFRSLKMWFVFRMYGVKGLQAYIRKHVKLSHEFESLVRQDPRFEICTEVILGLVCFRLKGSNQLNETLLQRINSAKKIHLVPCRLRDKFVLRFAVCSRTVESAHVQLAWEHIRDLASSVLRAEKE
Source text: Derivative 5 contains an aromatic amino acid moiety as a headgroup. This negatively charged headgroup, at physiological pH, may be a suitable substrate for the enzyme aromatic L-amino acid decarboxylase (AADC). Upon exposure to AADC, the headgroup of Derivative 5 should be converted to an amine thus changing the nature of the headgroup (from a carboxyl to amine) in a way that can result in destabilization of vesicles made from Derivative 5.
To test whether Derivative 5 could serve as a substrate for AADC, rat liver homogenate served as the source for AADC and the following experiment was carried out. A methanol solution (0.005 ml) of Derivative 5 was added to a reaction mixture (0.5 ml final volume) containing potassium phosphate (50 mM, pH=7.0), dithiothreitol (1 mM), EDTA (0.2 mM), pyridoxal 5′-phosphate (0.01 mM), pargylin (0.1 mM), and rat liver homogenate adjusted to 5 mg protein. The final concentration of Derivative 5 was 1 mM. The reaction mixture was incubated at 37° C. for 60 min followed by the addition of 0.05 ml perchloric acid (70%) and neutralized by 4M KOH. The mixture was then centrifuged at 20.000 g for 10 min at 4° C. and 0.1 ml of the supernatant was injected into a C18-HPLC column. The presence of the amine, which was formed during the reaction, was determined by electrochemical detector. […]

Row | Structure (SMILES) | hydrolysis rate (NaOH needed to maintain constant pH) (cholinesterases (ChE)) | competition with acetylthiocholine for the hydrolyzing enzyme (rate of appearance of yellow color) [1] | decarboxylation to the amine (HPLC peak) ([2]; 1 mM, rat liver homogenate 5 mg protein, 37° C., 60 min) | amine peak in presence of benserazide ([2]; benserazide 5×10^-5 M added to the reaction mixture)
1 | CCCCCC(OC(=O)C[N+](C)(C)CCOC(C)=O)C(O)CC=CCCCCCCCC(=O)NCCNC(=O)CCCCCCCC=CCC(O)C(CCCCC)OC(=O)C[N+](C)(C)CCOC(C)=O (stereo not shown) [Derivative 1] | faster hydrolysis | higher extent |  | 
2 | CCCCCC(OC(=O)CNc1ccc(CC(N)C(=O)O)cc1)C(O)CC=CCCCCCCCC(=O)NCCNC(=O)CCCCCCCC=CCC(O)C(CCCCC)OC(=O)CNc1ccc(CC(N)C(=O)O)cc1 (stereo not shown) [Derivative 5] |  |  | decarboxylated | not detectable

Reference: US7887833B2, “Amphiphilic compounds and vesicles liposomes for organ-specified drug targeting” (Ben-Gurion University of the Negev Research and Development …, priority 2001, dated 2011)
